Values of other authors as cited in patent publication US20080280861A1, “Method of Female Contraception and a Kit For Use Therein” (PANTARHEI BIOSCIENCE B.V., priority 2004, published 2008).

conditions: relative to levonorgestrel dosage; known in the art

First: C#C[C@]1(OC(C)=O)CC[C@H]2[C@@H]3CCC4=CC(=NO)CC[C@@H]4[C@H]3CC[C@@]21CC (mixture of isomers) [Norgestimate]
Second: C#C[C@]1(O)CC[C@H]2[C@@H]3CCC4=CC(=O)CC[C@@H]4[C@H]3CC[C@@]21C [Norethisterone]
The Conversion factor of the first is lower: 1.7 for the first, 7 for the second.

First: C[C@]12CCC(=O)C=C1[C@@H]1C[C@@H]1[C@H]1[C@@H]3[C@@H]4C[C@@H]4[C@@]4(CCC(=O)O4)[C@@]3(C)CC[C@@H]12 [Drospirenone]
Second: CC(=O)[C@H]1CC[C@H]2[C@@H]3C=CC4=CC(=O)CC[C@@]4(C)[C@@H]3CC[C@]12C [Dydrogesterone]
The Conversion factor of the first is lower: 20 for the first, 133 for the second.
